Test results from patent publication US20140066365A1, “USE OF CALIXARENES ASSOCIATED WITH AN ANTIBIOTIC IN THE TREATMENT OF BACTERIAL INFECTIONS” (priority 2011, published 2014).
In brackets after ≈: the same amount, converted by molar mass. Where two headings read alike, the source gives them in different places.

Key:
Assay type in all cases: cell-based
[1] = test system: EcR1: Penicillinase-Producing Escherichia coli without Associated Resistance; assay: Antibiogram by the disk diffusion technique; details: for MIC mg/L (diameter in mm): EcR1, cells that print a diameter, Table A2; for CA-SFM Interpretation: EcR1, diameter against CA-SFM 2011 limits; for CLSI Interpretation: EcR1, diameter against CLSI 2011 limits; for EUCAST Interpretation: EcR1, diameter against EUCAST 2011 limits; for Diameter: EcR1, disk diffusion; for Diameter / Results: Table A1; for Results: EcR1, interpretation of the diameter against Dmin Dmax
Experimental: (§1) 5.1 EcR1: Penicillinase-Producing Escherichia coli without Associated Resistance The bacterial and antibiogramidentification is carried out by the VITEK 2 system (bioMérieux) and by the disk diffusion technique.

[2] = test system: EcR1: Penicillinase-Producing Escherichia coli without Associated Resistance; assay: Antibiogram, MIC by the VITEK 2 system; details: for CA-SFM Interpretation: EcR1, MIC against Cc CA-SFM 2011; for CLSI Interpretation: EcR1, MIC against Cc CLSI 2011; for EUCAST Interpretation: EcR1, MIC against Cc EUCAST 2011; for Results: EcR1, interpretation of the MIC, Table A1; for MIC: Escherichia coli
Experimental: as §1

[3] = test system: EcR2: Cephalosporinase-Hyperproducing Strain of Escherichia coli; assay: Antibiogram, MIC by the VITEK 1 system; details: for Results: EcR2, Table B1; for CA-SFM Interpretation / CLSI Interpretation / EUCAST Interpretation: from MIC; for CA-SFM Interpretation: Cc CA-SFM 2011; for CLSI Interpretation: Cc CLSI 2011; for EUCAST Interpretation: Cc EUCAST 2011; for MIC: Escherichia coli
Experimental: (§2) The bacterial and antibiogramidentification is carried out by the VITEK 1 system (bioMérieux) and by the disk diffusion technique

[4] = test system: EcR3: ESBL-Producing Escherichia coli; assay: Antibiogram by the disk diffusion technique; details: for CA-SFM Interpretation: Cd CA-SFM 2011; for CLSI Interpretation: Cd CLSI 2011; for Diameter: Table C1; for Results: Table C1, against Dmin Dmax; for diameter in mm: Table C2; for EUCAST Interpretation: Cd EUCAST 2011
Experimental: The bacterial and antibiogramidentification is carried out by the VITEK 2 system (bioMerieux) and by the disk diffusion technique

[5] = test system: PaR3: Pseudomonas aeruginosa; assay: Antibiogram, MIC by the VITEK 2 system; details: for CA-SFM Interpretation: Cc CA-SFM 2011; for CLSI Interpretation: Cc CLSI 2011; for EUCAST Interpretation: Cc EUCAST 2011
Experimental: (§3) The bacterial and antibiogramidentification is carried out by the VITEK 2 system (bioMérieux)

[6] = test system: PaR5: Pseudomonas aeruginosa; assay: Antibiogram by the disk diffusion technique; details: for Diameter / Results / CA-SFM Interpretation / CLSI Interpretation / EUCAST Interpretation: PaR5; for Diameter / Results: Table I1; for Results: against Dmin-Dmax; for diameter in mm: disk diffusion inhibition diameter, strain PaR5; for CA-SFM Interpretation / CLSI Interpretation / EUCAST Interpretation: disk diffusion; for CA-SFM Interpretation: versus critical diameter CA-SFM 2011; for CLSI Interpretation: versus critical diameter CLSI 2011; for EUCAST Interpretation: versus critical diameter EUCAST 2011, for ** antibiotics the disk load differs and the EUCAST interpretation is not applicable
Experimental: (§4) The bacterial and antibiogramidentification is carried out by the VITEK 2 system (bioMérieux) and by the disk diffusion technique

[7] = test system: PaR2: Pseudomonas aeruginosa
Experimental: as §4

[8] = test system: EcR2: Cephalosporinase-Hyperproducing Strain of Escherichia coli; assay: Antibiogram by the disk diffusion technique
Experimental: as §2

[9] = test system: SaR3: Meticillin-Resistant Staphylococcus aureus; assay: Antibiogram by the disk diffusion technique
Experimental: as §4

[10] = test system: SaR1: Meticillin-Resistant Staphylococcus aureus without Associated Resistance; assay: Antibiogram, MIC by the VITEK 2 system; details: SaR1; for MIC: Staphylococcus aureus, read-out: MIC; for CA-SFM Interpretation: Cc CA-SFM 2011; for CLSI Interpretation: Cc CLSI 2011; for EUCAST Interpretation: Cc EUCAST 2011; for Results: from MIC
Experimental: as §3

[11] = test system: SaR4: Meticillin-Resistant Staphylococcus aureus; assay: Antibiogram, MIC by the VITEK 2 system; details: SaR4; for MIC: Staphylococcus aureus, read-out: MIC
Experimental: as §4

[12] = EcR1, Table A2, read-out: MIC mg/L (diameter in mm)
[13] = EcR1, VITEK 2, Table A1, read-out: MIC
[14] = EcR2, VITEK 1, Table B1, read-out: MIC
[15] = EcR2, Table B2, MIC, read-out: MIC
[16] = Pseudomonas aeruginosa, Table H2, read-out: MIC

C[C@H]1[C@H](NC(=O)/C(=N\OC(C)(C)C(=O)O)c2csc(N)n2)C(=O)N1S(=O)(=O)O [Aztreonam]
MIC mg/L (diameter in mm) [1]: 28 mm
CA-SFM Interpretation [1]: Susceptible
CLSI Interpretation [1]: Susceptible
EUCAST Interpretation [1]: Susceptible
Diameter [1]: 28 mm
Results [1]: Susceptible

CC(=O)OCC1=C(C(=O)O)N2C(=O)[C@@H](NC(=O)Cc3cccs3)[C@H]2SC1 [C1G, Cefalotine]
CA-SFM Interpretation [2]: Susceptible
CLSI Interpretation [2]: Susceptible
EUCAST Interpretation [2]: Susceptible
Results [2]: Susceptible
MIC [2, 12]: 4 mg/L (≈ 10.1 µM)
MIC [2, 13]: 4 mg/L (≈ 10.1 µM)
Diameter [1]: 17 mm
Results [1]: Intermediate
Results [3]: Resistant
CA-SFM Interpretation ([3]; EcR2): Resistant
CLSI Interpretation ([3]; EcR2): Resistant
EUCAST Interpretation ([3]; EcR2): Resistant
MIC [3, 14]: ≥ 64 mg/L
MIC [3, 15]: ≥ 64 mg/L
CA-SFM Interpretation [4]: Resistant
CLSI Interpretation [4]: Resistant
Diameter [4]: 6 mm
Results [4]: Resistant
diameter in mm [4]: 6 mm

CCn1cc(C(=O)O)c(=O)c2cc(F)c(N3CCN(C)CC3)cc21 [Pefloxacin]
Diameter [1]: 26 mm
Results [3]: Resistant
CA-SFM Interpretation ([3]; EcR2): Resistant
MIC [3, 14]: ≥ 8 mg/L
MIC [3, 15]: ≥ 8 mg/L
CA-SFM Interpretation [4]: Susceptible
Diameter [4]: 23 mm
diameter in mm [4]: 23 mm

CC1(C)S[C@@H]2[C@H](NC(=O)[C@H](C(=O)O)c3ccsc3)C(=O)N2[C@H]1C(=O)O [Ticarcillin]
CA-SFM Interpretation [2]: Resistant
CLSI Interpretation [2]: Resistant
EUCAST Interpretation [2]: Resistant
Results [2]: Resistant
MIC [2, 12]: ≥ 128 mg/L
MIC [2, 13]: ≥ 128 mg/L
Diameter [1]: 6 mm
Results [1]: Resistant
Results [3]: Intermediate
CA-SFM Interpretation ([3]; EcR2): Resistant
CLSI Interpretation ([3]; EcR2): Resistant
EUCAST Interpretation ([3]; EcR2): Resistant
MIC [3, 14]: 32 mg/L (≈ 83.2 µM)
MIC [3, 15]: 32 mg/L (≈ 83.2 µM)
CA-SFM Interpretation [4]: Resistant
CLSI Interpretation [4]: Resistant
EUCAST Interpretation [4]: Resistant
Diameter [4]: 6 mm
Results [4]: Resistant
diameter in mm [4]: 6 mm
CA-SFM Interpretation [5]: Resistant
CLSI Interpretation [5]: Resistant
EUCAST Interpretation [5]: Resistant
MIC [5, 16]: ≥ 128 µg/mL
MIC ([5]; Table H1): ≧128
Results ([5]; Table H1): Resistant
Diameter [6]: 32 mm
Results [6]: Susceptible
diameter in mm [6]: 32 mm
CA-SFM Interpretation [6]: Susceptible
CLSI Interpretation [6]: Susceptible
EUCAST Interpretation [6]: Susceptible
CA-SFM Interpretation ([7]; Cd CA-SFM 2011): Resistant
CLSI Interpretation ([7]; Cd CLSI 2011): Resistant
EUCAST Interpretation ([7]; Cd EUCAST 2011): Resistant
Diameter ([7]; Table G1): 10 mm
Results ([7]; Table G1, against Dmin-Dmax): Resistant
diameter in mm ([7]; Table G2): 10 mm

CO[C@@]1(NC(=O)Cc2cccs2)C(=O)N2C(C(=O)O)=C(COC(N)=O)CS[C@@H]21 [Cefoxitin]
CA-SFM Interpretation [2]: Susceptible
CLSI Interpretation [2]: Susceptible
Results [2]: Susceptible
MIC [2, 12]: ≤ 4 mg/L
MIC [2, 13]: ≤ 4 mg/L
Diameter [1]: 24 mm
Results [1]: Susceptible
Diameter ([8]; EcR2, disk diffusion, Table B1): 11
Results ([8]; EcR2, rows that print a diameter, Table B1): Resistant
Diameter ([8]; EcR2, Table B2, diameters): 11 mm
CA-SFM Interpretation ([8]; EcR2, from diameter, CA-SFM 2011): Resistant
CLSI Interpretation ([8]; EcR2, from diameter, CLSI 2011): Resistant
EUCAST Interpretation ([8]; EcR2, from diameter, EUCAST 2011): Resistant
CA-SFM Interpretation [4]: Resistant
CLSI Interpretation [4]: Resistant
EUCAST Interpretation [4]: Resistant
Results [4]: Intermediate
diameter in mm [4]: 6 mm
CA-SFM Interpretation ([9]; Cd CA-SFM 2011): Resistant
CLSI Interpretation ([9]; Cd CLSI 2011): Resistant
EUCAST Interpretation ([9]; Cd EUCAST 2011): Resistant
diameter in mm ([9]; Table E2): 17 mm

O=C1CN(/N=C/c2ccc([N+](=O)[O-])o2)C(=O)N1 [Nitrofurantoin]
MIC [2, 12]: ≤ 16 mg/L
MIC [2, 13]: ≤ 16 mg/L
MIC [3, 14]: ≤ 25 mg/L
MIC [3, 15]: ≤ 25 mg/L
MIC mg/L ([10]; Table D2): ≦16 mg/L
MIC ([10]; Table D1): ≤ 16 µg/mL
MIC ([11]; Table F1): ≤ 25 µg/mL
MIC ([11]; Table F2, MIC): ≤ 25 µg/mL

CCn1cc(C(=O)O)c(=O)c2cc(F)c(N3CCNCC3)cc21 [Norofloxacin]
Diameter [6]: 17 mm
Results [6]: Resistant

CN(C)[C@@H]1C(O)=C(C(N)=O)C(=O)[C@@]2(O)C(O)=C3C(=O)c4c(O)cccc4[C@@](C)(O)[C@H]3C[C@@H]12 [Tetracycline]
MIC ([11]; Table F1): ≤ 1 µg/mL
MIC ([11]; Table F2, MIC): ≤ 1 µg/mL

Cc1onc(-c2ccccc2)c1C(=O)N[C@@H]1C(=O)N2[C@@H]1SC(C)(C)[C@@H]2C(=O)O [Oxacillin]
CA-SFM Interpretation [10]: Resistant
CLSI Interpretation [10]: Resistant
EUCAST Interpretation [10]: Resistant
Results ([10]; Table D1): Resistant
MIC mg/L ([10]; Table D2): ≧8 mg/L
MIC ([10]; Table D1): ≥ 8 µg/mL
Results ([11]; Table F1, MIC): Resistant
CA-SFM Interpretation ([11]; from MIC, Cc CA-SFM 2011): Resistant
CLSI Interpretation ([11]; from MIC, Cc CLSI 2011): Resistant
EUCAST Interpretation ([11]; from MIC, Cc EUCAST 2011): Resistant
MIC ([11]; Table F1): ≥ 8 µg/mL
MIC ([11]; Table F2, MIC): ≥ 8 µg/mL

CO/N=C(\C(=O)N[C@@H]1C(=O)N2C(C(=O)[O-])=C(C[N+]3(C)CCCC3)CS[C@H]12)c1csc(N)n1 [Cefepime]
MIC mg/L (diameter in mm) [1]: 27 mm
CA-SFM Interpretation [1]: Susceptible
CLSI Interpretation [1]: Susceptible
EUCAST Interpretation [1]: Susceptible
Diameter [1]: 27 mm
Results [1]: Susceptible

CCn1cc(C(=O)O)c(=O)c2cc(F)c(N3CCNCC3)cc21 [Norfloxacin]
CA-SFM Interpretation [2]: Susceptible
CLSI Interpretation [2]: Susceptible
EUCAST Interpretation [2]: Susceptible
Results [2]: Susceptible
MIC [2, 12]: ≤ 0.5 mg/L
MIC [2, 13]: ≤ 0.5 mg/L

O=C(O)c1cn(C2CC2)c2cc(N3CCNCC3)c(F)cc2c1=O [Ciprofloxacin]
Results [1]: Susceptible
CA-SFM Interpretation [4]: Susceptible
Results [4]: Susceptible

C[C@@H](O)[C@H]1C(=O)N2C(C(=O)O)=C(S[C@@H]3CN[C@H](C(=O)N(C)C)C3)[C@H](C)[C@H]12 [Meropenem]
CA-SFM Interpretation [5]: Resistant
CLSI Interpretation [5]: Resistant
EUCAST Interpretation [5]: Resistant
MIC [5, 16]: ≥ 16 µg/mL
MIC ([5]; Table H1): ≧16
Results ([5]; Table H1): Resistant
Diameter [6]: 34 mm
Results [6]: Susceptible
diameter in mm [6]: 34 mm
CA-SFM Interpretation [6]: Susceptible
CLSI Interpretation [6]: Susceptible
EUCAST Interpretation [6]: Susceptible

Quinupristin-dalfopristin
CA-SFM Interpretation [10]: Susceptible
CLSI Interpretation [10]: Susceptible
EUCAST Interpretation [10]: Susceptible
MIC mg/L ([10]; Table D1): ≦0.25 mg/L
Results ([10]; Table D1): Susceptible
MIC mg/L ([10]; Table D2): ≦0.25 mg/L

CCn1cc(C(=O)O)c(=O)c2ccc(C)nc21 [Nalidixic acid]
CA-SFM Interpretation [2]: Susceptible
CLSI Interpretation [2]: Susceptible
Results [2]: Susceptible
MIC ([2]; read-out: MIC mg/L): ≤ 2 mg/L
MIC ([2]; read-out: MIC mg/L (diameter in mm)): ≤ 2 mg/L
Results [3]: Resistant
CA-SFM Interpretation ([3]; EcR2): Resistant
CLSI Interpretation ([3]; EcR2): Resistant
MIC [3]: ≥ 32 mg/L
MIC ([3]; read-out: MIC mg/L): ≥ 32 mg/L
